In patent US12030878B2 (BRISTOL-MYERS SQUIBB COMPANY, priority 2017, dated 2024):

Experiments:
Type in all cases: cell-based
human TLR7 = biological target: T1, human TLR7 (Homo sapiens, UniProt Q9NYK1); experiment: TLR7 inhibition reporter assay (HEK-Blue SEAP); conditions: HEK-Blue cells overexpressing human TLR7, stimulated with gardiquimod 7.5 μM, 22 hour incubation
T1 construct: host or cells: HEK-Blue cells
T1 sequence (Q9NYK1 27-1049): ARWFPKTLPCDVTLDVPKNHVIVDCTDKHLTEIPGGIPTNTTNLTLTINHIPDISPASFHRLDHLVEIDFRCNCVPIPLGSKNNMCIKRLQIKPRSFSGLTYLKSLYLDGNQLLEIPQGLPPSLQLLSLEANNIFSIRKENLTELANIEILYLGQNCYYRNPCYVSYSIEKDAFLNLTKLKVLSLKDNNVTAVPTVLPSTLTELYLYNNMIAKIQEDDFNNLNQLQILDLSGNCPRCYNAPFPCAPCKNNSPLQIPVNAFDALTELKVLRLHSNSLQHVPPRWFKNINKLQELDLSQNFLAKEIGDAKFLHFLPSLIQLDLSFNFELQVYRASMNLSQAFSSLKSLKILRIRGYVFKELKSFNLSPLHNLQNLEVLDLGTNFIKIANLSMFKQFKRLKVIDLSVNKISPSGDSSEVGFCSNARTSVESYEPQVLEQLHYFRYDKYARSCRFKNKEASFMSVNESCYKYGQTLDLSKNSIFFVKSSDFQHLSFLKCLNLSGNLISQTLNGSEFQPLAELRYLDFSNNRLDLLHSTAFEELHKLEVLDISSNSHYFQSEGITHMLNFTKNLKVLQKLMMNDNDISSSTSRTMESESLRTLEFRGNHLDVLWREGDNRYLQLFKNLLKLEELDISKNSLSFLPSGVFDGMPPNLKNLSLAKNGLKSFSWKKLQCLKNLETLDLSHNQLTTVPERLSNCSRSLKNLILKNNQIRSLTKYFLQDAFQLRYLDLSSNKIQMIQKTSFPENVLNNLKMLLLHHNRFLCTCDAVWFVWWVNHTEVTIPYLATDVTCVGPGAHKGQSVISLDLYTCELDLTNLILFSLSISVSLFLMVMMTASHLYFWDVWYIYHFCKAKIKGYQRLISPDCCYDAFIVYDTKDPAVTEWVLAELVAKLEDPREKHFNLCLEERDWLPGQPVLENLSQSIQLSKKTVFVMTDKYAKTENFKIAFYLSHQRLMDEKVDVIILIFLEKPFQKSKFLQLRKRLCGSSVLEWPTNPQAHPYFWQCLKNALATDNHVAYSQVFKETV
Method in brief: (§1)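 SEAP read-out via HEK-Blue Detection medium after 22 h at 37 °C; percent inhibition relative to agonist-plus-DMSO and known-inhibitor wells. Agonists: TLR7 gardiquimod 7.5 μM, TLR8 R848 15.9 μM, TLR9 ODN2006 5 nM. Dose range 0.05 nM–50 μM, 30 min compound pre-treatment at RT.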

human TLR8 = biological target: T2, human TLR8 (Homo sapiens, UniProt Q9NR97); experiment: TLR8 inhibition reporter assay (HEK-Blue SEAP); conditions: HEK-Blue cells overexpressing human TLR8, stimulated with R848 15.9 μM, 22 hour incubation
T2 construct: host or cells: HEK-Blue cells
T2 sequence (Q9NR97 27-1041): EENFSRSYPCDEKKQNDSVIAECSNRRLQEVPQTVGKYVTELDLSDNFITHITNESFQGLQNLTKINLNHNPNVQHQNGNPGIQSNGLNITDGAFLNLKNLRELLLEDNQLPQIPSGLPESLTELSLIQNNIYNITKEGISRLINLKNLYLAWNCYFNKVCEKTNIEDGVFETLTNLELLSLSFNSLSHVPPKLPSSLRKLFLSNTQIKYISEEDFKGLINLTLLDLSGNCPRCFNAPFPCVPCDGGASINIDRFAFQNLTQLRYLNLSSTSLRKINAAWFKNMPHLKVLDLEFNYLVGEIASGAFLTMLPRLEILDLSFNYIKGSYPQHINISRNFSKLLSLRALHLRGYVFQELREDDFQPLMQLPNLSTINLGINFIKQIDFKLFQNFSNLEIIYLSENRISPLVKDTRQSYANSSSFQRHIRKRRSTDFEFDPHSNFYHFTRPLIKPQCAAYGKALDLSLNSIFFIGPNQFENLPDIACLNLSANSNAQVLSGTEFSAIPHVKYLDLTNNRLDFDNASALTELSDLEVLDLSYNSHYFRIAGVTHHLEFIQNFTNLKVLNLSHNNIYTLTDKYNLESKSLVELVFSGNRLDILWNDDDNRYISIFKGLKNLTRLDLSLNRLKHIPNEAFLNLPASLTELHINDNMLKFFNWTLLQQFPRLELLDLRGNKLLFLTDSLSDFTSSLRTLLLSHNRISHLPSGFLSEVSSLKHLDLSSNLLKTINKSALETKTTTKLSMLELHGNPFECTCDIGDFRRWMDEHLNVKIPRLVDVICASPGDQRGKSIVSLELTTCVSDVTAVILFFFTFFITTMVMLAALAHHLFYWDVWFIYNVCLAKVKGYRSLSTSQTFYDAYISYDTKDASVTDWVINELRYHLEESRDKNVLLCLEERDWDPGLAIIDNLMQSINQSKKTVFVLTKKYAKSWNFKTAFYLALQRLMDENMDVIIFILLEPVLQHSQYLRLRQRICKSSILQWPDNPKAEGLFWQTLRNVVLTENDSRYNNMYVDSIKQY
Method in brief: as §1

human TLR9 = biological target: T3, human TLR9 (Homo sapiens, UniProt Q9NR96); experiment: TLR9 inhibition reporter assay (HEK-Blue SEAP); conditions: HEK-Blue cells overexpressing human TLR9, stimulated with ODN2006 5 nM, 22 hour incubation
T3 construct: host or cells: HEK-Blue cells
T3 sequence (Q9NR96 26-1032): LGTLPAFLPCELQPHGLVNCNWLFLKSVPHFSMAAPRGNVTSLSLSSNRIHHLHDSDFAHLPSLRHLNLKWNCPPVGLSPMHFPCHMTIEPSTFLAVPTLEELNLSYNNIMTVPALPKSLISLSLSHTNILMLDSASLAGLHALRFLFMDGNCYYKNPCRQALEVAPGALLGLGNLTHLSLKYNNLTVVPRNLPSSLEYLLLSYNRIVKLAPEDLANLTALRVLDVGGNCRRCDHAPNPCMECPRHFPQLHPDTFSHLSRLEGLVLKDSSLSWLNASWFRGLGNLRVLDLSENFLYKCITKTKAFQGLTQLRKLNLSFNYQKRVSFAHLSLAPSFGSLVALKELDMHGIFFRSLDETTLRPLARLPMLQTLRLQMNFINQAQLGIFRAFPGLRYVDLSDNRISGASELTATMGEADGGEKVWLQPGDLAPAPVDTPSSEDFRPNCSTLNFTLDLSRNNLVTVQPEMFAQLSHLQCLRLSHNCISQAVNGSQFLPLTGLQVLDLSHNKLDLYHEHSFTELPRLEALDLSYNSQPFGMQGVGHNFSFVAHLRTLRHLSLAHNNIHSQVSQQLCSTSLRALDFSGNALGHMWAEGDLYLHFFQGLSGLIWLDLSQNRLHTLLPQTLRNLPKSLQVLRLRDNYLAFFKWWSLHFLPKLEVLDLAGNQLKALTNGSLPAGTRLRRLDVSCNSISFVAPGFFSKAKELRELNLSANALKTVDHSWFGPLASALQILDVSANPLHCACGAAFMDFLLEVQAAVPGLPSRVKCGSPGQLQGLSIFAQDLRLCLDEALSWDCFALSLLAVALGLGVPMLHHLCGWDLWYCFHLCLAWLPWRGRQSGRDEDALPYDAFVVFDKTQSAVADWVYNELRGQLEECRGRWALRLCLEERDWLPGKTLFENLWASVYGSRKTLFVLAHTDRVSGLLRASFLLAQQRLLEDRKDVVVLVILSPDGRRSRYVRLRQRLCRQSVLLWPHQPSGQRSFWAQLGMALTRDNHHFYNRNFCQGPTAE
Method in brief: as §1

Row | SMILES | IC50 (human TLR7) [nM] | IC50 (human TLR8) [nM] | IC50 (human TLR9) [nM]
1 | Cc1cc(-c2[nH]c3ccc(OCCN4CCCC4)cc3c2C(C)C)cn2ncnc12 [Example 2, 6-(3-isopropyl-5-(2-(pyrrolidin-1-yl)ethoxy)-1H-indol-2-yl)-8-methyl-[1,2,4]triazolo[1,5-a]pyridine] | 1 | 1.6 | 2140
2 | Cc1cc(-c2[nH]c3ccc(OC4CCNCC4)cc3c2C(C)C)cc(C)n1 [Example 1, 2-(2,6-dimethylpyridin-4-yl)-3-isopropyl-5-(piperidin-4-yloxy)-1H-indole] | 2.9 | 2.1 | 241
3 | Cc1cc(-c2[nH]c3ccc(OCC4CCN(C(C)C)CC4)cc3c2C(C)C)cn(C)c1=O [Example 36, 5-(3-isopropyl-5-((1-isopropylpiperidin-4-yl)methoxy)-1H-indol-2-yl)-1,3-dimethylpyridin-2(1H)-one] | 5.6 | 2.4 | 10600
4 | COc1ccc(-c2[nH]c3ccc(OCC(=O)NC[C@@H](F)C(C)(C)O)cc3c2C(C)C)cc1OC [Example 154, (R)-2-((2-(3,4-dimethoxyphenyl)-3-isopropyl-1H-indol-5-yl)oxy)-N-(2-fluoro-3-hydroxy-3-methylbutyl) acetamide] | 899 | 1890 | > 50000
5 | Cc1c(-c2[nH]c3ccc(OC4CCN(CC(=O)N(C)C)CC4)cc3c2C(C)C)cn(C)c(=O)c1C [Example 87, 2-(4-((3-isopropyl-2-(1,4,5-trimethyl-6-oxo-1,6-dihydropyridin-3-yl)-1H-indol-5-yl)oxy)piperidin-1-yl)-N,N-dimethylacetamide] | 33.2 | 5.8 | 19600
6 | Cc1cc(-c2[nH]c3ccc(OCC(=O)N4CCCCC4C4CCNCC4)cc3c2C(C)C)ccn1 (stereo not drawn) [Example 143, 1-([2,4′-bipiperidin]-1-yl)-2-((3-isopropyl-2-(2-methylpyridin-4-yl)-1H-indol-5-yl)oxy)ethan-1-one] | 330 | 220 | 354
7 | Cc1cc(-c2[nH]c3ccc(OCCN4CCOCC4)cc3c2C(C)C)ccn1 [Example 175, 4-(2-((3-isopropyl-2-(2-methylpyridin-4-yl)-1H-indol-5-yl)oxy)ethyl)morpholine] | 439 | 17.5 | 9940
8 | COc1ccc(-c2[nH]c3ccc(OCC(=O)NC4CCN(C(C)C)CC4)cc3c2C(C)C)cc1OC [Example 139, 2-((2-(3,4-dimethoxyphenyl)-3-isopropyl-1H-indol-5-yl)oxy)-N-(1-isopropylpiperidin-4-yl)acetamide] | 623 | 83.2 | 2440
9 | Cc1cc(-c2[nH]c3ccc(OCC4CCCN(C)C4)cc3c2C(C)C)cc(C)n1 (stereo not drawn) [Example 30, 2-(2,6-dimethylpyridin-4-yl)-3-isopropyl-5-((1-methylpiperidin-3-yl)methoxy)-1H-indole] | 2.3 | 2.6 | 304
10 | CCc1c(-c2ccnc(C)c2)[nH]c2ccc(O[C@H]3CCNC3)cc12 [Example 182, (S)-3-ethyl-2-(2-methylpyridin-4-yl)-5-(pyrrolidin-3-yloxy)-1H-indole] | 400 | 19.2 | 566
11 | Cc1cc(-c2[nH]c3ccc(OCC4CCN(C(=O)CN(C)C)CC4)cc3c2C(C)C)cn2ncnc12 [Example 102, 2-(dimethylamino)-1-(4-(((3-isopropyl-2-(8-methyl-[1,2,4]triazolo[1,5-a]pyridin-6-yl)-1H-indol-5-yl)oxy)methyl)piperidin-1-yl)ethan-1-one] | 0.3 | 5 | 2570
12 | Cc1cc(-c2[nH]c3ccc(OC4CCN(CC(C)O)CC4)cc3c2C(C)C)cc(C)n1 (stereo not drawn) [Example 69, 1-(4-((2-(2,6-dimethylpyridin-4-yl)-3-isopropyl-1H-indol-5-yl)oxy)piperidin-1-yl) propan-2-ol] | 5.6 | 2.4 | 733
13 | Cc1cc(-c2[nH]c3ccc(OCc4cccnc4)cc3c2C(C)C)ccn1 [Example 169, 3-isopropyl-2-(2-methylpyridin-4-yl)-5-(pyridin-3-ylmethoxy)-1H-indole] | 200 | 181 | 28400
14 | Cc1cc(-c2[nH]c3ccc(OCC(=O)N(C)C4CCNCC4)cc3c2C(C)C)ccn1 [Example 148, 2-((3-isopropyl-2-(2-methylpyridin-4-yl)-1H-indol-5-yl)oxy)-N-methyl-N-(piperidin-4-yl) acetamide] | 142 | 51.4 | 172
15 | COc1ccc(-c2[nH]c3ccc(OCC4CCNCC4)cc3c2C(C)C)cc1OC [Example 159, 2-(3,4-dimethoxyphenyl)-3-isopropyl-5-(piperidin-4-ylmethoxy)-1H-indole] | 36.1 | 25.6 | 2320
